Among the data in patent US12391679B2, “Benzamide-substituted bicyclic imidazo- and pyrazolo-fused -pyridine, -pyrimide, and -pyridazine compounds for treatment of inflammatory diseases” (ONCO3R Therapeutics BV, priority 2019, dated 2025) are EC50 values, retold here.

pEC50: −log10 of the molar value. Read-outs that look alike come from different tables or passages of the source.

This test deals with LPS-induced TNFα in monocyte-derived macrophages. Put plainly: MdM assay: LPS-triggered TNFα (ELISA). It is filed as cell-based, human. A digest of the protocol: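 TNFα secretion quantified by streptavidin-HRP/luminol sandwich ELISA in supernatants collected 20 h after LPS (200 ng/mL). Macrophages derived from magnetically isolated human CD14+ monocytes were used at day 10, with compound added 1 h before LPS; final DMSO 0.2%.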
(In general: An ELISA detects its analyte on a solid surface through an enzyme-linked reagent.)

[1] abbreviates: Macrophage; human MdM; LPS 200 ng/mL; supernatant after 20 h; inhibition of TNFα; read-out: TNFα EC50.
The mark [2] stands for this setting: human MdM; LPS 200 ng/mL; supernatant after 20 h; inhibition of TNFα; read-out: TNFα EC50.
Setting [3] is: Homo sapiens, Macrophage, 20 h, read-out: TNFα EC50 (nM).

Broadly, the pEC50 is the EC50 on a negative log10 scale, so that one unit is a factor of ten. Regarding `CCOC(C)(C)c1ccn2c(-c3cc(OC)c(C(=O)NC4CC4)c(OC(F)F)c3)cnc2c1` [Cpd 128, N-cyclopropyl-2-(difluoromethoxy)-4-[7-(1-ethoxy-1-methyl-ethyl)imidazo[1,2-a]pyridin-3-yl]-6-methoxy-benzamide], under setting [1], the pEC50 is 6.00 to 7.00.

Turning to `COc1cc(-c2cnc3cc(C(C)(C)CO)ccn23)cc(OC(F)F)c1C(=O)NC1CC1` [Cpd 150, N-cyclopropyl-2-(difluoromethoxy)-4-[7-(2-hydroxy-1,1-dimethyl-ethyl)imidazo[1,2-a]pyridin-3-yl]-6-methoxy-benzamide], the pEC50 under setting [1] is 6.00 to 7.00.

On to `COc1cc(-c2cnn3cc(C4(C#N)CCOCC4)ccc23)cc(OC(F)F)c1C(=O)N[C@@H]1C[C@@H]1F` [Cpd 243, 4-[6-(4-cyanotetrahydropyran-4-yl)pyrazolo[1,5-a]pyridin-3-yl]-2-(difluoromethoxy)-N-[(1R,2S)-2-fluorocyclopropyl]-6-methoxy-benzamide], for which the pEC50 under setting [1] is 6.00 to 7.00.

As for `COc1cc(-c2cnn3cc(C(C)(C)CO)ccc23)cc(OC(F)F)c1C(=O)NC1CC1` [Cpd 236, N-cyclopropyl-2-(difluoromethoxy)-4-[6-(2-hydroxy-1,1-dimethyl-ethyl)pyrazolo[1,5-a]pyridin-3-yl]-6-methoxy-benzamide], the negative-log EC50 (pEC50) under setting [1] is 6.00 to 7.00.

In the case of `COc1cc(-c2cnn3cc(C(C)(C)CO)ccc23)cc(OC(F)F)c1C(=O)N[C@@H]1C[C@@H]1F` [Cpd 242, 2-(difluoromethoxy)-N-[(1R,2S)-2-fluorocyclopropyl]-4-[6-(2-hydroxy-1,1-dimethyl-ethyl)pyrazolo[1,5-a]pyridin-3-yl]-6-methoxy-benzamide], the pEC50 under setting [1] was 6.00 to 7.00.

In the case of `COc1cc(-c2cnc3cc(C4CN(C(C)=O)C4)ccn23)cc(OC(F)F)c1C(=O)NC1CC1` [Cpd 63, 4-[7-(1-acetylazetidin-3-yl)imidazo[1,2-a]pyridin-3-yl]-N-cyclopropyl-2-(difluoromethoxy)-6-methoxy-benzamide], the pEC50 under setting [1] is 5.30 to 6.00.

Take `COc1cc(-c2cnc3cc([C@@](C)(O)C4CC4)ccn23)cc(OC(F)F)c1C(=O)NC1CC1` (single isomer, unassigned) [Cpd 163, N-cyclopropyl-4-[7-(1-cyclopropyl-1-hydroxy-ethyl)imidazo[1,2-a]pyridin-3-yl]-2-(difluoromethoxy)-6-methoxy-benzamide]: under setting [2], the pEC50 was 6.00 to 7.00.

In the case of `COc1cc(-c2cnc3cc(C(C)(C)C#N)cnn23)cc(OC(F)F)c1C(=O)N[C@@H]1C[C@@H]1F` [Cpd 228, 4-[7-(1-cyano-1-methyl-ethyl)imidazo[1,2-b]pyridazin-3-yl]-2-(difluoromethoxy)-N-[(1R,2S)-2-fluorocyclopropyl]-6-methoxy-benzamide], the pEC50 under setting [1] was 6.00 to 7.00.

The term EC50 denotes the concentration giving half of the maximal effect. Turning to `COc1cc(-c2cnn3cc(C(C)(C)C#N)ccc23)cc(OC(F)F)c1C(=O)N[C@@H]1C[C@@H]1F` [Cpd 219, 4-[6-(1-cyano-1-methyl-ethyl)pyrazolo[1,5-a]pyridin-3-yl]-2-(difluoromethoxy)-N-[(1R,2S)-2-fluorocyclopropyl]-6-methoxy-benzamide], under setting [3], the concentration for a half-maximal effect (EC50) was 100 to 1000 nM.

For the molecule `COc1cc(-c2cnc3cc(C4(O)CCOCC4)ccn23)cc(OC(F)F)c1C(=O)NC1CC1` [Cpd 170, N-cyclopropyl-2-(difluoromethoxy)-4-[7-(4-hydroxytetrahydropyran-4-yl)imidazo[1,2-a]pyridin-3-yl]-6-methoxy-benzamide], under setting [1], the negative logarithm of the EC50 (pEC50) was 5.30 to 6.00.

As to `COc1cc(-c2cnc3cc(C(C)(O)C(F)(F)F)ccn23)cc(OC(F)F)c1C(=O)NC1CC1` (stereo not shown) [Cpd 129, N-cyclopropyl-2-(difluoromethoxy)-6-methoxy-4-[7-(2,2,2-trifluoro-1-hydroxy-1-methyl-ethyl)imidazo[1,2-a]pyridin-3-yl]benzamide], the pEC50 under setting [1] was 6.00 to 7.00.

For `COc1cc(-c2cnc3cc(C4(C#N)CC4)ccn23)cc(OC(F)F)c1C(=O)NC1CC1` [Cpd 33, 4-[7-(1-cyanocyclopropyl)imidazo[1,2-a]pyridin-3-yl]-N-cyclopropyl-2-(difluoromethoxy)-6-methoxy-benzamide], the negative-log EC50 (pEC50) under setting [1] was 6.00 to 7.00.

With `COc1cc(-c2cnc3cc(C(C)(C)O)ccn23)cc(OC(F)F)c1C(=O)NC1CC1` [Cpd 35, N-cyclopropyl-2-(difluoromethoxy)-4-[7-(1-hydroxy-1-methyl-ethyl)imidazo[1,2-a]pyridin-3-yl]-6-methoxy-benzamide], the pEC50 under setting [1] was 6.00 to 7.00.

For `COc1cc(-c2cnc3cc(C(C)(C)C#N)ccn23)cc(OC(F)F)c1C(=O)N1CC(C#N)C1` [Cpd 77, 1-[4-[7-(1-cyano-1-methyl-ethyl)imidazo[1,2-a]pyridin-3-yl]-2-(difluoromethoxy)-6-methoxy-benzoyl]azetidine-3-carbonitrile], under setting [1], the negative logarithm of the EC50 (pEC50) is 6.00 to 7.00.

Turning to `COc1cc(-c2cnn3cc(C(C)(C)C#N)ccc23)cc(OC(F)F)c1C(=O)N[C@@H]1C[C@H]1F` (single isomer, unassigned) [Cpd 258, 4-[6-(1-cyano-1-methyl-ethyl)pyrazolo[1,5-a]pyridin-3-yl]-2-(difluoromethoxy)-N-(2-fluorocyclopropyl)-6-methoxy-benzamide], for the setting “read-out: TNFα EC50; human MdM; LPS 200 ng/mL; supernatant after 20 h; inhibition of TNFα”, the negative logarithm of the EC50 (pEC50) was 6.00 to 7.00.

Take `CCC(C)(O)c1ccn2c(-c3cc(OC)c(C(=O)NC4CC4)c(OC(F)F)c3)cnc2c1` (stereo not shown) [Cpd 137, N-cyclopropyl-2-(difluoromethoxy)-4-[7-(1-hydroxy-1-methyl-propyl)imidazo[1,2-a]pyridin-3-yl]-6-methoxy-benzamide]: the negative-log EC50 (pEC50) under setting [1] is 6.00 to 7.00.

With `COc1cc(-c2cnc3cc(C(C)O)ccn23)cc(OC(F)F)c1C(=O)NC1CC1` (stereo not shown) [Cpd 140, N-cyclopropyl-2-(difluoromethoxy)-4-[7-(1-hydroxyethyl)imidazo[1,2-a]pyridin-3-yl]-6-methoxy-benzamide], the pEC50 under setting [1] was 5.30 to 6.00.

As for `COCC(C)(C#N)c1ccn2c(-c3cc(OC)c(C(=O)NC4CC4)c(OC(F)F)c3)cnc2c1` (stereo not shown) [Cpd 195, 4-[7-(1-cyano-2-methoxy-1-methyl-ethyl)imidazo[1,2-a]pyridin-3-yl]-N-cyclopropyl-2-(difluoromethoxy)-6-methoxy-benzamide], the pEC50 under setting [1] is 6.00 to 7.00.

For the molecule `COc1cc(-c2cnc3cc([C@@](C)(C#N)CO)ccn23)cc(OC(F)F)c1C(=O)NC1CC1` (single isomer, unassigned) [Cpd 190, 4-[7-(1-cyano-2-hydroxy-1-methyl-ethyl)imidazo[1,2-a]pyridin-3-yl]-N-cyclopropyl-2-(difluoromethoxy)-6-methoxy-benzamide], the pEC50 under setting [2] is 5.30 to 6.00.

`COc1cc(-c2cnn3cc(C(C)(C)C#N)ccc23)cc(OC(F)F)c1C(=O)NC1CC1` [Cpd 208, 4-[6-(1-cyano-1-methyl-ethyl)pyrazolo[1,5-a]pyridin-3-yl]-N-cyclopropyl-2-(difluoromethoxy)-6-methoxy-benzamide]: under setting [1], the pEC50 was 6.00 to 7.00.

With `COc1cc(-c2cnc3cc(C(C)(O)C4CC4)ccn23)cc(OC(F)F)c1C(=O)NC1CC1` (stereo not shown) [Cpd 138, N-cyclopropyl-4-[7-(1-cyclopropyl-1-hydroxy-ethyl)imidazo[1,2-a]pyridin-3-yl]-2-(difluoromethoxy)-6-methoxy-benzamide], under setting [1], the pEC50 is 6.00 to 7.00.

Take `COc1cc(-c2cnn3cc(C4(C#N)CCOCC4)ccc23)cc(OC(F)F)c1C(=O)NC1CC1` [Cpd 237, 4-[6-(4-cyanotetrahydropyran-4-yl)pyrazolo[1,5-a]pyridin-3-yl]-N-cyclopropyl-2-(difluoromethoxy)-6-methoxy-benzamide]: the pEC50 under setting [1] was 5.30 to 6.00.

`COc1cc(-c2cnn3cc(C4CCOCC4)cnc23)cc(OC(F)F)c1C(=O)NC1CC1` [Cpd 95, N-cyclopropyl-2-(difluoromethoxy)-6-methoxy-4-(6-tetrahydropyran-4-ylpyrazolo[1,5-a]pyrimidin-3-yl)benzamide]: under setting [1], the pEC50 was 5.30 to 6.00.

For the molecule `COc1cc(-c2cnn3cc(C(C)(C)C#N)ccc23)cc(OC(F)F)c1C(=O)N[C@@H]1C[C@H]1F` (single isomer, unassigned) [Cpd 257, 4-[6-(1-cyano-1-methyl-ethyl)pyrazolo[1,5-a]pyridin-3-yl]-2-(difluoromethoxy)-N-(2-fluorocyclopropyl)-6-methoxy-benzamide], under setting [3], the EC50 was 100 to 1000 nM.

As for `COc1cc(-c2cnc3cc(C4CCC4)c(F)cn23)cc(OC(F)F)c1C(=O)NC1CC1` [Cpd 168, 4-(7-cyclobutyl-6-fluoro-imidazo[1,2-a]pyridin-3-yl)-N-cyclopropyl-2-(difluoromethoxy)-6-methoxy-benzamide], under setting [1], the pEC50 is 6.00 to 7.00.
